What was measured:
ZEAMX [1] = test: Drought stress test on crop plants in greenhouse, spray application; format: in vivo, Zea mays; conditions: efficacy = percentage reduction in intensity of damage, mean of three results
Description: (§1) Seeds of monocotyledonous and dicotyledonous crop plants were laid out in sandy loam in wood-fiber pots, covered with soil and cultivated in a greenhouse under good growth conditions. The test plants were treated at the early leaf stage (BBCH10-BBCH13). To ensure uniform water supply before commencement of stress, the potted plants were supplied with the maximum amount of water immediately beforehand by dam irrigation and, after application, transferred in plastic inserts in order to prevent subsequent, excessively rapid drying. The inventive compounds, formulated in the form of wettable powders (WP), wettable granules (WG), suspension concentrates (SC) or emulsion concentrates (EC), were sprayed onto the green parts of the plants as an aqueous suspension at an equivalent water application rate of 600 l/ha with addition of 0.2% wetting agent (agrotin). Substance application is followed immediately by stress treatment of the plants (cold or drought stress). For cold stress treatment, the plants were kept under the following controlled conditions: • “day”: 12 hours with illumination at 8° C. • “night”: 12 hours without illumination at 1° C.
(§2) Drought stress was induced by gradual drying out under the following conditions: • “day”: 14 hours with illumination at 26° C. • “night”: 10 hours without illumination at 18° C.
(§3) The duration of the respective stress phases was guided mainly by the state of the untreated (=treated with blank formulation without test compound), stressed control plants and thus varied from crop to crop. It was ended (by re-irrigating or transfer to a greenhouse with good growth conditions) as soon as irreversible damage was observed on the untreated, stressed control plants. In the case of dicotyledonous crops, for example oilseed rape and soybeans, the duration of the drought stress phase varied between 3 and 5 days, in the case of monocotyledonous crops, for example wheat, barley or corn, between 6 and 10 days. The duration of the cold stress phase varied between 12 and 14 days.
(§4) The end of the stress phase was followed by an approx. 5-7-day recovery phase, during which the plants were once again kept under good growth conditions in a greenhouse. In order to rule out any influence of the effects observed by any fungicidal action of the test compounds, it was additionally ensured that the tests proceeded without fungal infection and without infection pressure.
(§5) After the recovery phase had ended, the intensities of damage were rated in visual comparison to untreated, unstressed controls of the same age (in the case of drought stress) or the same growth stage (in the case of cold stress). The intensity of damage was first assessed as a percentage (100%=plants have died, 0%=like control plants). These values were then used to calculate the efficacy of the test compounds (=percentage reduction in the intensity of damage as a result of substance application) by the following formula:
(§6) [formula] EF: efficacy (%) DVus: damage value of the untreated, stressed control DVts: damage value of the plants treated with test compound
(§7) The tables A-1 and B-1 to B-4 below list mean values in each case from three results of the same test.
(§8) Efficacies of selected compounds of the formula (I) under drought stress using the examples of HORVS, BRSNS, ZEAMX und TRZAS: […]

TRZAS = test: as above; format: in vivo, Triticum aestivum; conditions: efficacy = percentage reduction in intensity of damage, mean of three results
Description: as §1, §2, §3, §4, §5, §6, §7, §8

BRSNS = test: as above; format: in vivo, Brassica napes; conditions: efficacy = percentage reduction in intensity of damage, mean of three results
Description: as §1, §2, §3, §4, §5, §6, §7, §8

HORVS = test: as above; format: in vivo, Hordeum vulgare; conditions: dosage 500 g/ha, efficacy = percentage reduction in intensity of damage, mean of three results
Description: Seeds of monocotyledonous and dicotyledonous crop plants were laid out in sandy loam in wood-fiber pots, covered with soil and cultivated in a greenhouse under good growth conditions. The test plants were treated at the early leaf stage (BBCH10-BBCH13). To ensure uniform water supply before commencement of stress, the potted plants were supplied with the maximum amount of water immediately beforehand by dam irrigation and, after application, transferred in plastic inserts in order to prevent subsequent, excessively rapid drying. The inventive compounds, formulated in the form of wettable powders (WP), wettable granules (WG), suspension concentrates (SC) or emulsion concentrates (EC), were sprayed onto the green parts of the plants as an aqueous suspension at an equivalent water application rate of 600 l/ha with addition of 0.2% wetting agent (agrotin). Substance application is followed immediately by stress treatment of the plants (cold or drought stress). […]
After the recovery phase had ended, the intensities of damage were rated in visual comparison to untreated, unstressed controls of the same age (in the case of drought stress) or the same growth stage (in the case of cold stress). The intensity of damage was first assessed as a percentage (100%=plants have died, 0%=like control plants). […]

ZEAMX [2] = test: Cold stress test on crop plants in greenhouse, spray application; format: in vivo, Zea mays; conditions: efficacy = percentage reduction in intensity of damage, mean of three results
Description: Seeds of monocotyledonous and dicotyledonous crop plants were laid out in sandy loam in wood-fiber pots, covered with soil and cultivated in a greenhouse under good growth conditions. The test plants were treated at the early leaf stage (BBCH10-BBCH13). To ensure uniform water supply before commencement of stress, the potted plants were supplied with the maximum amount of water immediately beforehand by dam irrigation and, after application, transferred in plastic inserts in order to prevent subsequent, excessively rapid drying. The inventive compounds, formulated in the form of wettable powders (WP), wettable granules (WG), suspension concentrates (SC) or emulsion concentrates (EC), were sprayed onto the green parts of the plants as an aqueous suspension at an equivalent water application rate of 600 l/ha with addition of 0.2% wetting agent (agrotin). Substance application is followed immediately by stress treatment of the plants (cold or drought stress). For cold stress treatment, the plants were kept under the following controlled conditions: • “day”: 12 hours with illumination at 8° C. • “night”: 12 hours without illumination at 1° C. The duration of the respective stress phases was guided mainly by the state of the untreated (=treated with blank formulation without test compound), stressed control plants and thus varied from crop to crop. It was ended (by re-irrigating or transfer to a greenhouse with good growth conditions) as soon as irreversible damage was observed on the untreated, stressed control plants. In the case of dicotyledonous crops, for example oilseed rape and soybeans, the duration of the drought stress phase varied between 3 and 5 days, in the case of monocotyledonous crops, for example wheat, barley or corn, between 6 and 10 days. The duration of the cold stress phase varied between 12 and 14 days. The end of the stress phase was followed by an approx. 5-7-day recovery phase, during which the plants were once again kept under good growth conditions in a greenhouse. In order to rule out any influence of the effects observed by any fungicidal action of the test compounds, it was additionally ensured that the tests proceeded without fungal infection and without infection pressure. After the recovery phase had ended, the intensities of damage were rated in visual comparison to untreated, unstressed controls of the same age (in the case of drought stress) or the same growth stage (in the case of cold stress). The intensity of damage was first assessed as a percentage (100%=plants have died, 0%=like control plants). These values were then used to calculate the efficacy of the test compounds (=percentage reduction in the intensity of damage as a result of substance application) by the following formula: [formula] EF: efficacy (%) DVus: damage value of the untreated, stressed control DVts: damage value of the plants treated with test compound The tables A-1 and B-1 to B-4 below list mean values in each case from three results of the same test. Efficacies of selected compounds of the formula (I) under cold stress using the example of ZEAMX: […]

For `Cc1cc(-c2nc3ccccc3c(=O)[nH]2)oc1C` [I.1-45], the “EF (ZEAMX)” value (ZEAMX [1]; dosage 500 g/ha) was over 5%.
With `Cc1cccc2c(=O)[nH]c(-c3ccc(Br)cc3)nc12` [I.1-378] the “EF (TRZAS)” value (TRZAS; dosage 250 g/ha) was over 5%.
With `Cc1nc[nH]c1-c1nc2cc(Cl)ccc2c(=O)[nH]1` [I.1-139] the “EF (ZEAMX)” value (ZEAMX [1]; dosage 500 g/ha) was over 5%.
In the case of `COc1cc(/C=C/C2NC(=O)c3ccccc3N2C)cc(OC)c1O` (centres unmarked) [I.4-90], the “EF (BRSNS)” value (BRSNS; dosage 250 g/ha) was over 5%.
In the case of `COc1cccc2c(=O)[nH]c(C3CCCC3)nc12` [I.1-157], the “EF (ZEAMX)” value (ZEAMX [1]; dosage 500 g/ha) was over 5%.
With `O=c1[nH]c(-c2cc(Br)cs2)nc2c(Cl)cccc12` [I.1-201] the “EF (ZEAMX)” value (ZEAMX [1]; dosage 250 g/ha) was over 5%.
With `Cc1ccc(-c2nc3ccccc3c(=O)[nH]2)o1` [I.1-44] the “EF (ZEAMX)” value (ZEAMX [1]; dosage 500 g/ha) was over 5%.
For `Cc1nc2c([N+](=O)[O-])cccc2c(=O)[nH]1` [I.1-32], the “EF (HORVS)” value (HORVS) was over 5%.
With `COc1cc2nc(-c3cccc(C(F)(F)F)c3)[nH]c(=O)c2cc1OC` [I.1-440] the “EF (ZEAMX)” value (ZEAMX [2]; dosage 25 g/ha) was over 5%.
Work on `Cc1ccc(-c2nc3c(C)cccc3c(=O)[nH]2)c(Cl)c1` [I.1-505, 2-(2-Chloro-4-methylphenyl)-8-methylquinazolin-4(3H)-one] yielded a melting point of 234 °C.
With `CCN(CC)CCN1C(=O)c2cccc(OC)c2NC1c1ccnn1C` (centres unmarked) [I.4-330] the “EF (ZEAMX)” value (ZEAMX [1]; dosage 250 g/ha) was over 5% and the “EF (TRZAS)” value (TRZAS; dosage 250 g/ha) was over 5%.
In the case of `CCn1ccc(C2NC(=O)c3cccc(OC)c3N2)n1` (centres unmarked) [I.4-97], the “EF (ZEAMX)” value (ZEAMX [1]; dosage 250 g/ha) was over 5% and the “EF (TRZAS)” value (TRZAS; dosage 250 g/ha) was over 5%.
In the case of `Cc1cccc2c(=O)[nH]c(CCc3ccccc3)nc12` [I.1-145], the “EF (BRSNS)” value (BRSNS; dosage 50 g/ha) was over 5%.
In the case of `CN1c2ccccc2C(=O)NC1c1cnn(C)c1` (centres unmarked) [I.4-63], the “EF (ZEAMX)” value (ZEAMX [2]; dosage 50 g/ha) was over 5%.
With `COc1cccc2c(=O)[nH]c(-c3ccc([N+](=O)[O-])cc3)nc12` [I.1-36] the “EF (ZEAMX)” value (ZEAMX [2]; dosage 25 g/ha) was over 5%.
In the case of `Cc1cccc2c1NC(c1ccoc1)NC2=O` (centres unmarked) [I.4-84], the “EF (ZEAMX)” value (ZEAMX [1]; dosage 250 g/ha) was over 5%.
For `Cc1ccc(C2NC(=O)c3cccc(Cl)c3N2)c(Cl)c1` (centres unmarked) [I.4-295], the “EF (ZEAMX)” value (ZEAMX [1]; dosage 250 g/ha) was over 5%.
For `Cc1cccc2c1C(=O)NC(c1ccsc1)N2` (centres unmarked) [I.4-180], the “EF (ZEAMX)” value (ZEAMX [1]; dosage 250 g/ha) was over 5%.
With `O=c1[nH]c(CCc2ccccc2)nc2c(Cl)cccc12` [I.1-172] the “EF (ZEAMX)” value (ZEAMX [2]; dosage 25 g/ha) was over 5%.
In the case of `Cc1ccc(C2NC(=O)c3c(C)cccc3N2)cc1` (centres unmarked) [I.4-193], the “EF (TRZAS)” value (TRZAS; dosage 250 g/ha) was over 5%.
For `CCn1nccc1C1NC(=O)c2cccc(C)c2N1` (centres unmarked) [I.4-115], the “EF (BRSNS)” value (BRSNS; dosage 250 g/ha) was over 5% and the “EF (TRZAS)” value (TRZAS; dosage 250 g/ha) was over 5%.
In the case of `O=C1NC(c2ccoc2)Nc2ccccc21` (centres unmarked) [I.4-51], the “EF (ZEAMX)” value (ZEAMX [2]; dosage 250 g/ha) was over 5%.
With `Cc1cccc2c(=O)[nH]c(/C=C/c3cccnc3)nc12` [I.1-338] the “EF (BRSNS)” value (BRSNS; dosage 100 g/ha) was over 5%, the “EF (ZEAMX)” value (ZEAMX [1]; dosage 100 g/ha) was over 5% and the “EF (TRZAS)” value (TRZAS; dosage 100 g/ha) was over 5%.
For `Cc1nn2c([nH]c(=O)c3ccccc32)c1-c1ccccc1` [I.3-1], the “EF (BRSNS)” value (BRSNS; dosage 250 g/ha) was over 5%.
With `O=c1[nH]c(-c2ccc(C#Cc3ccccc3F)o2)nc2cc(Cl)ccc12` [I.1-181] the “EF (BRSNS)” value (BRSNS; dosage 250 g/ha) was over 5%.
For `O=c1[nH]c2c(-c3ccc(Cl)cc3)c(C(F)(F)F)nn2c2ccccc12` [I.3-17, 3-(4-Chlorophenyl)-2-(trifluoromethyl)pyrazolo[1,5-a]quinazolin-5(4H)-one], the “EF (BRSNS)” value (BRSNS; dosage 250 g/ha) was over 5% and the “EF (ZEAMX)” value (ZEAMX [1]; dosage 250 g/ha) was over 5%.

Source: patent US9006265B2, “Substituted fused pyrimidinones and dihydropyrimidinones” (Bayer Intellectual Property GmbH, priority 2010, dated 2015)
